The subject of one assay is Agrp promoter. In words: ChIP-qPCR at the Agrp promoter in mouse ARC. The following applies: leptin 5 mg/kg. In kind it is in vivo. Here is the method:
To prepare antibodies, 5 μl (packed volume) of ChIP grade Dynabeads Protein G (Invitrogen, Thermo Scientific, 10004D) were washed twice with 1 ml of binding buffer (0.2% Tween-20 in PBS), followed by incubation on a rotator with 10 μg of rabbit polyclonal anti-TET3 (Active Motif, 61395) (FIG. 12A), anti-STAT3 (Proteintech, 10253-2-AP), anti-NCOR1 (Cell Signaling, 5948S) (Hainberger et al., 2020, Front Immunol., 11:579), anti-HDAC4 (Active Motif, 40969) (FIG. 12B), anti-H3K9ac (Active Motif, 39137) (validated by the vendor), or preimmune rabbit IgG (as a negative control) in 350 μl of binding buffer at 4 °C overnight (Gao, Y. et al., 2020, Advanced Science, 7:2002518; Hainberger, D. et al., 2020, Frontiers in Immunology, 11:579). Antibody bound beads were washed twice with 1 ml of binding buffer, resuspended in 50 μl of dilution buffer (0.01% SDS, 1.1% Triton X-100, 1.2 mM EDTA, 16.7 mM Tris-HCl at PH 8.0, 167 mM NaCl), and kept on ice until use. To prepare chromatin, freshly isolated ARCs (2 ARCs from one mouse per ChIP, FIG. 6D and FIG. 6I) were washed twice with 1 ml of cold-PBS, followed by cross-linking in 1% paraformaldehyde/PBS on a rotator at room temperature for 15 min. Glycine buffer (150 mM final concentration) was added and incubated in rotation at room temperature for 10 min to quench cross-linking. Cross-linked ARCs were washed twice with PBS and homogenized (5-10 strokes) using a disposable pellet pestle (Fisher Scientific, 12-141-368) in 300 μl of cold cell lysis buffer (50 mM Tris-HCl at PH 8.0, 140 mM NaCl, 1 mM EDTA, 10% glycerol, 0.5% NP-40, 0.25% Triton X-100), followed by incubation at 4 °C for 20 min to lyse the plasma membrane. […]
A general note: Real-time PCR tracks product formation cycle by cycle.

In the next assay the test system is RAW 264.7 cells. In words: TUNEL assay in RAW 264.7 cells. In kind it is cell-based, mouse. The following applies: RAW 264.7, 10 μM, 48 h. Here is the method:
For TET3 expression restoration experiments, cells seeded in 24-well plates were infected with Ad-GFP or Ad-TET3 at 4000 gc/cell. Following 16 h of infection, vehicle or Bobcat339 were added at a final concentration of 10 μM. Protein and RNA were isolated 48 hours later and analyzed.
These were performed using the In Situ Cell Death Detection Kit (Sigma Aldrich, 12156792910). Briefly, cells were fixed with 4% paraformaldehyde in PBS for 1 h at RT and rinsed with PBS, followed by permeabilization with 0.1% Triton X-100 in 0.1% sodium citrate for 2 min on ice. TUNEL reaction mixture was added and incubation was carried out at 37 °C for 60 min. DAPI was added to counter-stain the cells for 1 min. The slides were coverslipped and scoped using a Keyence BZ-X700 fluorescence microscope.

The subject of another assay is let-7a. The assay can be described thus: let-7a miRNA in endometriosis, NASH liver and lung tumor tissues. The following applies: lung cancer tissues. In kind it is in vivo, mouse. Here is the method: For let-7a qPCR, 10 ng of total RNA was reverse transcribed to cDNA in a reaction volume of 10 μl using miRCURY LNA RT Kit (QIAGEN, 339340). Quantitative real-time PCR reactions were carried out using miRCURY LNA SYBR Green PCR Kit (QIAGEN, 339346) and a let-7a-specific primer (Has-Let-7a-5p miRCURY LNA miRNA PCR Assay, QIAGEN, 339306/YP00205727) in a Bio-Rad iCycler. Gene expression levels were normalized against U6 (U6 snRNA v2 miRURY LNA miRNA PCR Assay, QIAGEN, 339306/YPO2119464, QIAGEN).

The subject of a further assay is TET1. The following applies: cited from earlier work.

Entries after “also recorded” stand apart in the source; their conditions may differ.

Consider “leptin: adipose hormone; mouse leptin L3772-1MG or human leptin L4146-1MG, Sigma Aldrich”, for which, in the assay on Agrp promoter, the “histone acetylation (H3K9ac) at the Agrp promoter” value is listed as “reduction was observed in histone acetylation at the Agrp promoter”. Further, the “binding of STAT3, TET3, NCOR1, and HDAC4 to the Agrp promoter” value in the assay on Agrp promoter (AAV-sgTet3 mice) was “failed to do so in AAV-sgTet3 injected mice”; with Agrp promoter (control mice), “increased binding of STAT3, TET3, NCOR1, and HDAC4 to the Agrp promoter”.

Consider `Nc1nc(=O)n(-c2cccc(-c3ccccc3)c2)cc1Cl` [Bobcat339, 4-Amino-1-[1,1′-biphenyl]-3-yl-5-chloro-2(1H)-pyrimidinone], for which the results for the “apoptosis (TUNEL)” value with RAW 264.7 cells and in the assay with RAW 264.7 cells (with Ad-TET3) were “induced apoptosis; also recorded: a significant increase in apoptotic cell death” and “reversed by overexpression of TET3; also recorded: not seen when TET3 was overexpressed”, respectively. Also, the “let-7a miRNA levels in disease tissues” value in the assay with let-7a is recorded as “increased”. For the same compound, the “inhibitory activity against TET1” value in the assay on TET1 (in the absence of contaminating copper (II)) is recorded as “negligible inhibitory activity”. For the same compound, the “inhibition of enzymatic activity of TET1” value in the assay on TET1 (initially reported) is on record as “inhibit the enzymatic activity”.

(Values after patent US20260355199A1, “COMPOSITIONS AND METHODS FOR TREATING OR PREVENTING NONALCOHOLIC STEATOHEPATITIS (NASH), ANOREXIA, DEPRESSION, ENDOMETRIOSIS, AND OTHER DISEASES OR DISORDERS” (priority 2022, published 2026).)
